The values below come from patent US10975071B2, “Inhibitors of KRAS G12C mutant proteins” (Araxes Pharma LLC, priority 2015, dated 2021).

The target of this assay is T1, KRAS G12C 1-169, his-tagged protein, GDP-loaded (Homo sapiens, UniProt P01116, G12C).
T1 construct: KRAS G12C 1-169, his-tagged protein, GDP-loaded
T1 sequence (P01116 1-169 isoform P01116-2 G12C): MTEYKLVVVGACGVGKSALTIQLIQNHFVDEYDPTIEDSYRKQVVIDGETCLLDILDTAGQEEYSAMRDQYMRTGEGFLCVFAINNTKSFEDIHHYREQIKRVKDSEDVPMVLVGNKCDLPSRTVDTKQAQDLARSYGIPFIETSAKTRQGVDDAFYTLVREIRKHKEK
Put plainly: Biochemical assay: covalent binding to KRAS G12C measured by mass spectrometry. The protocol:
Test compounds are prepared as 10 mM stock solutions in DMSO (Fisher cat# BP-231-100). KRAS G12C 1-169, his-tagged protein, GDP-loaded is diluted to […] in buffer (20 mM Hepes, 150 mM NaCl, 1 mM MgCl2). Compounds are tested for activity as follows:
Compounds are diluted to 50× final test concentration in DMSO in 96-well storage plates. Compound stock solutions are vortexed before use and observed carefully for any sign of precipitation. Dilutions are as follow: • For 100 μM final compound concentration, compounds are diluted to 5000 μM (5 μl 10 mM compound stock +5 μl DMSO and mixed well by pipetting. • For 30 μM final compound concentration, compounds are diluted to 1500 μM (3 μl 10 mM compound stock +17 μl DMSO) and mixed well by pipetting. • For 10 μM final compound concentration, compounds are diluted to 500 μM (2 μl 10 mM compound stock +38 μl DMSO) and mixed well by pipetting. 49 μl of the stock protein solution is added to each well of a 96-well PCR plate (Fisher cat#1423027). […] of the diluted 50× compounds are added to appropriate wells in the PCR plate using 12-channel pipettor. Reactions are mixed carefully and thoroughly by pipetting up/down with a 200 μl multi-channel pipettor. The plate is sealed well with aluminum plate seal, and stored in drawer at room temperature for 24 hrs. 5 μl of 2% formic acid (Fisher cat# Al 117) in DI H2O is then added to each well followed by mixing with a pipette. The plate is then resealed with aluminum seal and stored on dry ice until analyzed as described below.
The above described assays are analyzed by mass spectrometry according to the following procedure:
The MS instrument is set to positive polarity, 2 GHz resolution, and low mass (1700) mode and allowed to equilibrate for 30 minutes. The instrument is then calibrated, switched to acquisition mode and the appropriate method loaded.
After another 30 minute equilibration time, a blank batch (i.e., buffer) is run to ensure equipment is operating properly. The samples are thawed at 37° C. for 10 minutes, briefly centrifuged, and transfer to the bench top. Wells Al and H12 are spiked with 1 uL 500 uM internal standard peptide, and the plates centrifuged at 2000×g for 5 minutes. The method is then run and masses of each individual well recorded.
The masses (for which integration data is desired) for each well are pasted into the platemap and exported from the analysis. Masses for the internal standards are exported as well. The data at 50 ppm is extracted for the +19 charge state, and identity of well Al is assigned using the internal standard spike and integrated. Peak data is exported as a TOF list and the above steps are repeated individually, for the +20, 21, 22, 23, 24, and 25 charge states.
`C=CC(=O)N1CCN(c2cnc3cc(-c4c(C)ccc5[nH]ncc45)c(Cl)cn23)CC1` [Compound 1, 1-(4-(6-chloro-7-(5-methyl-1H-indazol-4-yl)imidazo[1,2-a]pyridin-3-yl)piperazin-1-yl)prop-2-en-1-one]: the Binding % entry is “++ (++ indicates binding activity greater than 5% and up to 50%)”.
Then `C=CC(=O)N1CCN(c2cnc3c(F)c(-c4c(O)cccc4F)c(Cl)cn23)CC1` [Compound 20, 1-(4-(6-chloro-8-fluoro-7-(2-fluoro-6-hydroxyphenyl)imidazo[1,2-a]pyridin-3-yl)piperazin-1-yl)prop-2-en-1-one], with “+++ (+++ indicates binding activity 50% or greater)”; and `C=CC(=O)N1CCN(c2c(NC(C)=O)nc3cc(-c4c(F)cccc4OC)c(Cl)cn23)CC1` [Compound 21, N-(3-(4-acryloylpiperazin-1-yl)-6-chloro-7-(2-fluoro-6-methoxyphenyl)imidazo[1,2-a]pyridin-2-yl)acetamide], with “+ (+ indicates binding activity up to 5)”; and `C=CC(=O)N1CCN(c2c(NC(C)=O)nc3cc(-c4c(O)cccc4F)c(C)cn23)CC1` [Compound 24, N-(3-(40 acryloylpiperazin-1-yl)-7-(2-fluoro-6-hydroxyphenyl)-6-methylimidazo[1,2-a]pyridin-2-yl)acetamide], with “+ (+ indicates binding activity up to 5)”.
Then `C=CC(=O)N1CCN(C2=NCC(=O)Nc3c2cc(Cl)c(-c2c(O)cccc2F)c3F)CC1` [Compound 25, 5-(4-acryloylpiperazin-1-yl)-7-chloro-9-fluoro-8-(2-fluoro-6-hydroxyphenyl)-1,3-dihydro-2H-benzo[e][1,4] diazepin-2-one], with “+ (+ indicates binding activity up to 5)”.
Then `C=CC(=O)N1CCN(C2=COC3C=C(c4c(O)cccc4F)C(Cl)=CC23)CC1` (stereo not drawn) [Compound 26, 1-(4-(5-chloro-6-(2-fluoro-6-hydroxyphenyl)-3a,7a-dihydrobenzofuran-3-yl)piperazin-1-yl)prop-2-en-1-one], with “+++ (+++ indicates binding activity 50% or greater)”.
